# From patent publication US20100240654A1, “HYDRAZIDE DERIVATIVES” (priority 2004, published 2010)
# Key:
# healthy human plasma = assay: Blood clotting time prolongation (prothrombin time, steel ball method); settings: human thromboplastin, 37° C.
# [1] = target: T1, human clotting factor VIIa (Homo sapiens, UniProt P08709); assay: Inhibitory activity against clotting factor VIIa (chromogenic substrate Spectrozyme FVIIa, with tissue factor); format: biochemical; settings: 10 nmol/L TF, 5 nmol/L Factor VIIa, room temperature 40 minutes, 405 nm
# T1 construct: a human clotting factor VIIa (Factor VIIa) purified sample; purchased Enzyme Research Laboratories (Factor VIIa); Calbiochem (tissue factor) HFVIIa (Factor VIIa); 612151 (tissue factor)
# T1 sequence (P08709 213-466 limits assumed): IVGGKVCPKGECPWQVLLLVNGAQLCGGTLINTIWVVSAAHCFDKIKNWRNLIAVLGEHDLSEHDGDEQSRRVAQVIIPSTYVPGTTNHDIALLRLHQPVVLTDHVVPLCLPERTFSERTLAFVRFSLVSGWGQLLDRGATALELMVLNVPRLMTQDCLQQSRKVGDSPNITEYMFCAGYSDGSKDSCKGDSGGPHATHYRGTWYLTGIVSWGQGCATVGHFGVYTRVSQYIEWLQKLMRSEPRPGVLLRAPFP
# T1 sequence (P08709 61-212 limits assumed): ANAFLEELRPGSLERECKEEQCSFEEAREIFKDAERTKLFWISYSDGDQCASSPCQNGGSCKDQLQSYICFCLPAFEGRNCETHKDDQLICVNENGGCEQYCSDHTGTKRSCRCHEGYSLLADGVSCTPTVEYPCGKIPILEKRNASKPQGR
# T1 sequence (P13726 33-295 partner): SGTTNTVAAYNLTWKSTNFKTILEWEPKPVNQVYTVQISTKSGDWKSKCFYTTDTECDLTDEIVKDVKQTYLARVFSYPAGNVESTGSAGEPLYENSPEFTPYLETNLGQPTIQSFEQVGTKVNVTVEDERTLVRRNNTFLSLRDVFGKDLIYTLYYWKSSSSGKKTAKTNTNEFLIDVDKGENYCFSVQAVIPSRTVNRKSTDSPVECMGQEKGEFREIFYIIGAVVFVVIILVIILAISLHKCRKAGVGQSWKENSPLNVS
# Method: Dimethylsulfoxide (DMSO) solutions were prepared with compounds of the invention at concentration of 10 mmol/L (10 mmol/L compound solutions).
# One packet of tris-hydroxymethylaminomethane-preset (Tris Preset) (product of SIGMA Corp., Catalog No. T8293), 8.8 g of sodium chloride (NaCl) and 1 g of bovine serum albumin (BSA) were dissolved in 1 L of water to prepare a Tris-BSA buffer (100 mmol/L Tris, 0.15 mol/L NaCl, 0.1% BSA, pH 7.4).
# The Tris-BSA buffer (180 μL) was added to the aforementioned 10 mmol/L compound solution (20 μL). A 10-fold dilution series was prepared for this mixture using the aforementioned Tris-BSA buffer, and solutions with the compound at concentrations of 1.0 mmol/L, 100, 10, 1, 0.1, 0.01 and 0.001 μmol/L were prepared (1.0 mmol-0.001 μmol/L compound solutions).
# As a control, a solution was prepared by 10-fold dilution of DMSO with the Tris-BSA buffer (control 10% solution).
# After dissolving one packet of Tris preset, NaCl (8.8 g) and BSA (1 g) in water (about 900 mL), there were added 1 mol/L aqueous calcium chloride (CaCl2) (15 mL) and 1 mg/mL aqueous cephalin (30 mL), and the total volume was brought to 1 L by adding water. To this solution was added a human tissue factor (TF) sample (product of Calbiochem, Catalog No. 612151) (450 μg) to a TF sample concentration of 10 nmol/L, and then a human clotting factor VIIa (Factor VIIa) purified sample (product of Enzyme Research Laboratories, Catalog No. HFVIIa) (250 μg) was added to a Factor VIIa purified sample concentration of 5 nmol/L, to prepare an enzyme solution (100 mmol/L Tris-HCl, 0.15 mol/L NaCl, 15 mmol/L CaCl2, 30 μg/mL cephalin, 1 mg/mL BSA, 10 nmol/L TF, 5 nmol/L Factor VIIa).
# To 110 μL of this enzyme solution was added 15 μL of each of the 1.0 mmol-0.001 μmol/L compound solutions, and then 25 μL of a 1.0 mmol/L synthetic chromogenic substrate solution (Spectrozyme FVIIa) was added and the mixture was allowed to stand at room temperature for 40 minutes. Next, the amount of 4-nitroanilide released into the solution was quantitated by spectrophotometry (405 nm).
# A control measurement was conducted in the same manner, using the control 10% solution instead of the compound solution.
# This measurement yielded the enzyme reaction inhibition in the presence of 100 μmol/L to 0.1 nmol/L of each compound of the invention. The enzyme reaction inhibition at each compound concentration was subjected to non-linear regression analysis, and the IC50 value for inhibitory activity of each compound against clotting factor VIIa was calculated.
Structure (SMILES),IC50 [1],h PT × 1.1: compound concentration which produced 10% prolongation compared to the control clotting time (healthy human plasma)
"CCOc1cc(C(Nc2ccc(C(=N)N)cc2)C(=O)NNC(=O)c2ccncc2Cl)ccc1OCCOC.O=C(O)C(F)(F)F (centres unmarked) [Example 78, 4-(2-(N′-(3-Chloropyridine-4-carbonyl)hydrazino)-1-(3-ethoxy-4-(2-methoxyethoxy)phenyl)-2-oxoethylamino)benzamidine trifluoroacetate]",49 nM,0.42 µM
"CCCOc1cc(OC)cc(C(Nc2ccc(C(=N)N)cc2)C(=O)NNC(=O)c2ccncc2)c1F.O=C(O)C(F)(F)F (centres unmarked) [Example 81, 4-{1-(2-Fluoro-5-methoxy-3-propoxyphenyl)-2-oxo-2-[N′-(pyridine-4-carbonyl)hydrazino]ethylamino}benzamidine trifluoroacetate]",78 nM,1.20 µM
"CCOc1cc(C(Nc2ccc(C(=N)N)cc2)C(=O)NNC(=O)c2ccncc2F)ccc1OCC(C)(C)N.O=C(O)C(F)(F)F (centres unmarked) [Example X-248, 4-[1-[4-(2-Amino-2-methylpropoxy)-3-ethoxyphenyl]-2-[N′-(3-fluoropyridine-4-carbonyl)-hydrazino]-2-oxoethylamino]benzamidine trifluoroacetate]",173 nM,0.83 µM
"CCOc1cc(C(Nc2ccc(C(=N)N)cc2)C(=O)NNc2ccccc2C(=O)O)ccc1OC(C)CN(C)C.O=C(O)C(F)(F)F (centres unmarked) [Example X-251, 2-(N′-(2-(4-Carbamimidoylphenylamino)-2-(4-(2-dimethylamino-1-methylethoxy)-3-ethoxyphenyl)acetyl)hydrazino)benzoic acid trifluoroacetate]",166 nM,0.68 µM
"CCOc1cc(C(Nc2ccc(C(=N)N)cc2)C(=O)NNC(=O)c2ccncc2F)ccc1OC(C)CN(C)C.O=C(O)C(F)(F)F (centres unmarked) [Example X-254, 4-(1-(4-(2-Dimethylamino-1-methylethoxy)-3-ethoxyphenyl)-2-(N′-(3-fluoropyridine-4-carbonyl)hydrazino)-2-oxoethylamino)benzamidine trifluoroacetate]",50 nM,0.59 µM

# More lines, in order of falling IC50 [1], values ahead:
IC50 [1],Structure (SMILES),h PT × 1.1: compound concentration which produced 10% prolongation compared to the control clotting time (healthy human plasma)
165 nM,"CCOc1cc(C(Nc2ccc(C(=N)N)cc2)C(=O)NNc2ccccc2C(=O)O)ccc1OCC(=O)N(C)C.O=C(O)C(F)(F)F (centres unmarked) [Example X-246, 2-[N′-[2-(4-Carbamimidoylphenylamino)-2-(4-dimethylcarbamoylmethoxy-3-ethoxyphenyl)acetyl]hydrazino]benzoic acid trifluoroacetate]",0.90 µM
98 nM,"CCOc1cc(C(Nc2ccc(C(=N)N)cc2)C(=O)NNC(=O)c2ccccc2Cl)ccc1OC(C)CN(C)C.O=C(O)C(F)(F)F (centres unmarked) [Example X-252, 4-(2-(N′-(2-Chlorobenzoyl)hydrazino)-1-(4-(2-dimethylamino-1-methylethoxy)-3-ethoxyphenyl)-2-oxoethylamino)benzamidine trifluoroacetate]",0.76 µM
